Entries after “also recorded” stand apart in the source; their conditions may differ. Non-standard residues stand in square brackets, D forms with d. No end group written: not given here. Bip = N[C@@H](Cc1ccc(-c2ccccc2)cc1)C(=O)O
B1: Lactadherin: 47 kDa glycoprotein, natural PS-binding protein (protein, UniProt Q08431 24-387, looked up)
Lactadherin: LDICSKNPCHNGGLCEEISQEVRGDVFPSYTCTCLKGYAGNHCETKCVEPLGLENGNIANSQIAASSVRVTFLGLQHWVPELARLNRAGMVNAWTPSSNDDNPWIQVNLLRRMWVTGVVTQGASRLASHEYLKAFKVAYSLNGHEFDFIHDVNKKHKEFVGNWNKNAVHVNLFETPVEAQYVRLYPTSCHTACTLRFELLGCELNGCANPLGLKNNSIPDKQITASSSYKTWGLHLFSWNPSYARLDKQGNFNAWVAGSYGNDQWLQVDLGSSKEVTGIITQGARNFGSVQFVASYKVAYSNDSANWTEYQDPRTGSSKIFPGNWDNHSHKKNLFETPILARYVRILPVAWHNRIALRLELLGC
B2: FITC-labeled annexin V: naturally occurring 36 kDa PS-binding protein, FITC-labeled (protein, UniProt P08758 2-320, looked up)
Annexin A5: AQVLRGTVTDFPGFDERADAETLRKAMKGLGTDEESILTLLTSRSNAQRQEISAAFKTLFGRDLLDDLKSELTGKFEKLIVALMKPSRLYDAYELKHALKGAGTNEKVLTEIIASRTPEELRAIKQVYEEEYGSSLEDDVVGDTSGYYQRMLVVLLQANRDPDAGIDEAQVEQDAQALFQAGELKWGTDEEKFITIFGTRSVSHLRKVFDKYMTISGFQIEETIDRETSGNLEQLLLAVVKSIRSIPAYLAETLYYAMKGAGTDDHTLIRVMVSRSEIDLFNIRKEFRKNFATSLYSMIKGDTSGDYKKALLLLCGEDD
modifications: FITC label

Key:
[1] = tested on: phosphatidylserine (PS)-containing liposomes (PC/PS vesicles); test: Liposome binding assay (Trp-to-dansyl FRET) with large unilamellar vesicles; parameters: key to Liposome binding assay: “Y” means PS-selective (or apoptotic cell-specific) binding is observed; N means no or insignificant membrane binding is observed; “Nonselective” refers to membrane binding independent on PS; conditions: for Liposome binding assay: dansyl FRET assay; for binding to lipid vesicles of either composition: vesicles with and without PS; for binding to PC/PS liposomes (sensitized dansyl emission at 520 nm): PC/PS vesicles; for PS-selective binding in the presence of cholesterol: cholesterol-containing liposomes with PS vs without PS
Experimental: The binding of cLac to lipid membrane can be analyzed by any method known it the art. For example, by the fluorescence assay (Trp-to-dansyl FRET) described herein. Basically, large unilamellar vesicles (100 nm in diameter) were prepared with phosphatidylcholine (PC) and varied percentages of PS. All vesicles contained 5% dansyl-labeled PE to serve as a reporting group. The peptide-vesicle binding was monitored by the fluorescence resonance energy transfer (FRET) from Trp to the dansyl group. Emission of sensitized dansyl is monitored at 520 nm and Trp emission is monitored near 350 nm. Membrane binding of cLac to the PC/PS vesicles produces a sensitized dansyl emission at 520 nm with a concurrent decrease of Trp emission near 350 nm.
The peptide-membrane binding was evaluated via a fluorescence assay: large unilamellar vesicles (100 nm in diameter) were prepared with PC and varied percentages of PS. All vesicles contained 5% dansyl-labeled PE to serve as a reporting group. The peptide-vesicle binding was monitored by the fluorescence resonance energy transfer (FRET) from Trp to the dansyl group.

[2] = tested on: apoptotic HeLa and Jukat cells (STS or CPT treated); test: Cell imaging of apoptotic cells by epifluorescence microscopy; format: cell-based, human; parameters: key to Cell imaging: “Y” means PS-selective (or apoptotic cell-specific) binding is observed; N means no or insignificant membrane binding is observed; “Nonselective” refers to membrane binding independent on PS; conditions: for Cell imaging: standard epifluorescence microscopy
Experimental: The fluorescent derivative was tested for its potential to stain apoptotic cells. Cultured HeLa and Jukat cells were treated with the potent apoptogen staurosporine (STS) or camptothecin (CPT) respectively to trigger apoptosis. The experimental conditions were optimized with the FITC-labeled annexin V and the membrane impermeable DNA intercalator propidium iodine (PI). The treatment with 0.1 μM STS or CPT for 4 hours gave a large population of early apoptotic cells (data not shown), which were stained with annexin, but not PI. This indicates increased presence of PS exposure on the outer membrane leaflet of the cells experiencing early apoptosis. […] As negative controls, both fluorescein alone as well as the FITC-labeled linear precursor of cLac were used to label the apoptotic cells and tested for fluorescence staining. […] This observation is consistent with the previous reports that annexin V preferentially binds to cells at the early stages of apoptosis. Since these early apoptotic cells hold their membrane integrity (PI negative), it is believed cLac2-Fl stained the cells by binding to their outer surfaces, presumably to PS.

PS = conditions: without cofactors; cited from earlier work

Row | Molecule | Liposome binding assay [1] | other results
1 | D-WBipGHIQGGRGGGD (cyclo([dW][Bip]GHIQGGRGGGD); SMILES CC[C@H](C)[C@@H]1NC(=O)[C@H](Cc2c[nH]cn2)NC(=O)CNC(=O)[C@H](Cc2ccc(-c3ccccc3)cc2)NC(=O)[C@@H](Cc2c[nH]c3ccccc23)NC(=O)[C@H](CC(=O)O)NC(=O)CNC(=O)CNC(=O)CNC(=O)[C@H](CCCNC(=N)N)NC(=O)CNC(=O)CNC(=O)[C@H](CCC(N)=O)NC1=O) [cLac-D-Trp] | Y | –
2 | DWBipGHIQGGRGGG (DW[Bip]GHIQGGRGGG; not fully specified) [cLac-linear, ID; NO; 43] | N | Cell imaging [2]: N; binding to lipid vesicles of either composition ([1]; FRET): binds to neither type of vesicle
3 | Lac-1: cLac variant peptide, SEQ. ID. NO. 35 (WGHIQGRGGGD) | N | –
4 | Lac-1R: cLac variant peptide, SEQ. ID. NO. 36 (GGGRGQIHGWD) | N | –
5 | Lac-2: cLac variant peptide, SEQ. ID. NO. 37 (WGHIQGGRGGGD) | N | –
6 | Lac-Tph: cLac variant peptide, SEQ. ID. NO. 39 (WFGHIQGGRGGGD) | Nonselective | –
7 | WBipGHIQAGRGGGD (cyclo(W[Bip]GHIQAGRGGGD); SMILES CC[C@H](C)[C@@H]1NC(=O)[C@H](Cc2c[nH]cn2)NC(=O)CNC(=O)[C@H](Cc2ccc(-c3ccccc3)cc2)NC(=O)[C@H](Cc2c[nH]c3ccccc23)NC(=O)[C@H](CC(=O)O)NC(=O)CNC(=O)CNC(=O)CNC(=O)[C@H](CCCNC(=N)N)NC(=O)CNC(=O)[C@H](C)NC(=O)[C@H](CCC(N)=O)NC1=O) [cLac-A1] | Y | –
8 | WBipGHIQGARGGGD (cyclo(W[Bip]GHIQGARGGGD); SMILES CC[C@H](C)[C@@H]1NC(=O)[C@H](Cc2c[nH]cn2)NC(=O)CNC(=O)[C@H](Cc2ccc(-c3ccccc3)cc2)NC(=O)[C@H](Cc2c[nH]c3ccccc23)NC(=O)[C@H](CC(=O)O)NC(=O)CNC(=O)CNC(=O)CNC(=O)[C@H](CCCNC(=N)N)NC(=O)[C@H](C)NC(=O)CNC(=O)[C@H](CCC(N)=O)NC1=O) [cLac-A2] | Y | –
9 | WBipGHIQGGGRGGGD (cyclo(W[Bip]GHIQGGGRGGGD); SMILES CC[C@H](C)[C@@H]1NC(=O)[C@H](Cc2c[nH]cn2)NC(=O)CNC(=O)[C@H](Cc2ccc(-c3ccccc3)cc2)NC(=O)[C@H](Cc2c[nH]c3ccccc23)NC(=O)[C@H](CC(=O)O)NC(=O)CNC(=O)CNC(=O)CNC(=O)[C@H](CCCNC(=N)N)NC(=O)CNC(=O)CNC(=O)CNC(=O)[C@H](CCC(N)=O)NC1=O) [cLac-33G] | Y | –
10 | WBipGHIQGGRGGAD (cyclo(W[Bip]GHIQGGRGGAD); SMILES CC[C@H](C)[C@@H]1NC(=O)[C@H](Cc2c[nH]cn2)NC(=O)CNC(=O)[C@H](Cc2ccc(-c3ccccc3)cc2)NC(=O)[C@H](Cc2c[nH]c3ccccc23)NC(=O)[C@H](CC(=O)O)NC(=O)[C@H](C)NC(=O)CNC(=O)CNC(=O)[C@H](CCCNC(=N)N)NC(=O)CNC(=O)CNC(=O)[C@H](CCC(N)=O)NC1=O) [cLac-A5] | Y | –
11 | WBipGHIQGGRGGGD (cyclo(W[Bip]GHIQGGRGGGD); SMILES CC[C@H](C)[C@@H]1NC(=O)[C@H](Cc2c[nH]cn2)NC(=O)CNC(=O)[C@H](Cc2ccc(-c3ccccc3)cc2)NC(=O)[C@H](Cc2c[nH]c3ccccc23)NC(=O)[C@H](CC(=O)O)NC(=O)CNC(=O)CNC(=O)CNC(=O)[C@H](CCCNC(=N)N)NC(=O)CNC(=O)CNC(=O)[C@H](CCC(N)=O)NC1=O) [cLac-2, biphenylalanine replaces Phe] | Y | binding to PC-alone liposomes ([1]; FRET, PC-alone liposomes): no binding; binding to PC/PS liposomes (sensitized dansyl emission at 520 nm) ([1]; FRET): clearly elicits a sensitized dansyl emission; also recorded: only with PC/PS liposomes; binding to cholesterol-containing membranes without PS ([1]; cholesterol-containing PC liposomes): non-specific binding; PS-selective binding in the presence of cholesterol [1]: able to differentiate PS-containing vesicles from PS-absent vesicles; dansyl fluorescence of vesicles containing 20% PS relative to 5% PS ([1]; peptide at saturating concentration 50 μM): close to four-fold; Kd ([1]; titration with PC/PS vesicles, sensitized dansyl emission, read-out: apparent dissociation constant (Kd)): ~15 µM
12 | WBipGHIQGGRGGGGD (cyclo(W[Bip]GHIQGGRGGGGD); SMILES CC[C@H](C)[C@@H]1NC(=O)[C@H](Cc2c[nH]cn2)NC(=O)CNC(=O)[C@H](Cc2ccc(-c3ccccc3)cc2)NC(=O)[C@H](Cc2c[nH]c3ccccc23)NC(=O)[C@H](CC(=O)O)NC(=O)CNC(=O)CNC(=O)CNC(=O)CNC(=O)[C@H](CCCNC(=N)N)NC(=O)CNC(=O)CNC(=O)[C@H](CCC(N)=O)NC1=O) [cLac-24G] | Y | –
13 | WBipGHIQGGRGGGGGD (cyclo(W[Bip]GHIQGGRGGGGGD); SMILES CC[C@H](C)[C@@H]1NC(=O)[C@H](Cc2c[nH]cn2)NC(=O)CNC(=O)[C@H](Cc2ccc(-c3ccccc3)cc2)NC(=O)[C@H](Cc2c[nH]c3ccccc23)NC(=O)[C@H](CC(=O)O)NC(=O)CNC(=O)CNC(=O)CNC(=O)CNC(=O)CNC(=O)[C@H](CCCNC(=N)N)NC(=O)CNC(=O)CNC(=O)[C@H](CCC(N)=O)NC1=O) [cLac-25G] | Y | –
14 | WBipGHIQGRGGGD (cyclo(W[Bip]GHIQGRGGGD); SMILES CC[C@H](C)[C@@H]1NC(=O)[C@H](Cc2c[nH]cn2)NC(=O)CNC(=O)[C@H](Cc2ccc(-c3ccccc3)cc2)NC(=O)[C@H](Cc2c[nH]c3ccccc23)NC(=O)[C@H](CC(=O)O)NC(=O)CNC(=O)CNC(=O)CNC(=O)[C@H](CCCNC(=N)N)NC(=O)CNC(=O)[C@H](CCC(N)=O)NC1=O) [cLac-13G] | Y | –
15 | WBipGHIQGppGRGGAD [cLac-PPG-2] | Y | Cell imaging [2]: Y; binding to PC/PS liposomes (sensitized dansyl emission at 520 nm) ([1]; FRET): selective binding; PS-selective binding in the presence of cholesterol [1]: selective binding
16 | WBipGHppGQGGRGGGD [cLac-PPG-0] | Y | Cell imaging [2]: Y; binding to PC/PS liposomes (sensitized dansyl emission at 520 nm) ([1]; FRET): selective binding; PS-selective binding in the presence of cholesterol [1]: selective binding
17 | cLac-1: first cyclic lactadherin mimetic with Trp and Phe as membrane insertion motif, SEQ. ID. NO. 38 (WFGHIQGGRGGGD; cyclic) | N | binding to lipid vesicles of either composition ([1]; FRET): no binding
18 | cLac-22G: cLac variant with di-Gly in linker II, SEQ. ID. NO. 42 (WFGHIQGGRGGD; cyclic) | N | dansyl emission / membrane binding compared among linker-length variants ([1]; Trp-to-dansyl FRET, Gly number of linker II varied 2 to 5, or linker I varied): lowest
19 | cLac-A3: alanine for glycine linker variant G10A, SEQ. ID. NO. 40 (WFGHIQGGRAGGD; cyclic) | N | –
20 | cLac-A4: alanine for glycine linker variant G11A, SEQ. ID. NO. 41 (WFGHIQGGRGAGD; cyclic) | N | –
21 | B1 | – | affinity of binding to PS (PS): nanomolar
22 | B2 | – | staining of apoptotic cells ([2]; 0.1 μM STS or CPT for 4 hours, early apoptotic cells): stained
